From doi:10.1101/2022.01.03.474871v1 (biorxiv, 2022)

Experiments:
[1] = biological target: T1, RpfC (full-length, in liposomes) (Xanthomonas campestris, UniProt P0C0F7); assay: […] autophosphorylation assay, RpfC liposomes; assay type: biochemical; conditions: activation of autokinase; 100 µM ATP, pH 7.8, 5 mM MgCl2, 28 °C
[2] = biological target: T1, RpfC (full-length, in liposomes); assay: label-free microscale thermophoresis, RpfC liposomes; assay type: binding; conditions: 50 mM Tris-HCl pH 7.8, 150 mM NaCl, 10 mM MgCl2, 0.1% Pluronic F-127

T1 sequence (P0C0F7 whole entry): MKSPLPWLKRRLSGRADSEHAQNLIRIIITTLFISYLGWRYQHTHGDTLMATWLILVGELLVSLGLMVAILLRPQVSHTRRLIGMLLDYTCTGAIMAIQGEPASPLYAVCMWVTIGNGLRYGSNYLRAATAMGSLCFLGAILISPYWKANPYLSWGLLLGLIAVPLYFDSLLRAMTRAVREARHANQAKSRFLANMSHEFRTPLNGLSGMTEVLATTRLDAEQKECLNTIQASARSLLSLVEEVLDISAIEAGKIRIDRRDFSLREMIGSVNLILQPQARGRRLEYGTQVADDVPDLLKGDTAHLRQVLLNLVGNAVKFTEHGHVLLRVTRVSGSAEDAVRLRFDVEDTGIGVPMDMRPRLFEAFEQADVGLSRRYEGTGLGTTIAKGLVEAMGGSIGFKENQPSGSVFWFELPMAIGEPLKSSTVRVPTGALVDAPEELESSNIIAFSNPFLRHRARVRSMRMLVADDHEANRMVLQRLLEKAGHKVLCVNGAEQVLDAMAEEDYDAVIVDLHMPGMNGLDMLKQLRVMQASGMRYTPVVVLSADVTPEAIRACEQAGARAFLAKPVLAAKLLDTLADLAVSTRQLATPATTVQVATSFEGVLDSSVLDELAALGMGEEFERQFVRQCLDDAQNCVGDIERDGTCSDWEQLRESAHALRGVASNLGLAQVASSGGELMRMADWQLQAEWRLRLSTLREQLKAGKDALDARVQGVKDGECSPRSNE

| SMILES | EC50 [1] [µM] | Kd [2] [µM] |
| --- | --- | --- |
| CCCCCCCCC/C=C\C(=O)O [BDSF, cis-2-dodecenoic acid] | ~0.06 |  |
| CCCCCCCCC/C=C/C(=O)O [trans-BDSF] | 1.11 | 11.2 ± 0.95 |
